Data on 12 molecules can be found in patent US5434186A, “Carboxylic acid leukotriene B4 antagonists” (Hoffmann-La Roche Inc., priority 1993, dated 1995).

pIC50, pKi: −log10 of the molar value. Where two headings read alike, the source gives them in different places.

By pKi is commonly meant the negative decadic logarithm of the Ki, by convention in mol/L. As a reminder, the pIC50 is the negative decadic logarithm of the IC50, by convention in mol/L.

In assay [1] the target is T1, LTB4 Receptor (Homo sapiens, UniProt Q15722).
T1 construct: Isolated human neutrophils in Gey's salt solution; endogenous in cells; host or cells: human neutrophils isolated from blood (90-95% neutrophils)
T1 sequence (Q15722 whole entry): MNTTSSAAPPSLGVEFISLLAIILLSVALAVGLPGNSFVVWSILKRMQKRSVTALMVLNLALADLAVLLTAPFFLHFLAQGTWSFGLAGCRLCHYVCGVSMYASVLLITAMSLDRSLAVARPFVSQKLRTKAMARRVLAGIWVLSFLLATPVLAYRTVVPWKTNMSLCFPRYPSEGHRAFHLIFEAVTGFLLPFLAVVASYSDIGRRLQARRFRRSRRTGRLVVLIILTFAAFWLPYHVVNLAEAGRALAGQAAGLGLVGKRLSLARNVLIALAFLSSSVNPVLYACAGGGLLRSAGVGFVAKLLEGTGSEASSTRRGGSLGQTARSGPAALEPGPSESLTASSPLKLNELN
The assay can be described thus: LTB4 Receptor Binding Assay (inhibition of 3H-LTB4 binding, human neutrophils). Particulars: 0.5 nM 3H-LTB4, 45 minutes on ice, isolated human neutrophils. The procedure:
Binding assays can be performed in microtiter wells. Isolated human neutrophils in Gey's salt solution are incubated on ice for 45 minutes with 0.5 nM ^3 H-LTB4 in the presence or absence of test compounds. Assays are terminated by adding 12 ml ice cold 50 mM Tris (pH 7.4) followed by rapid filtration under vacuum through GF/C filters. Radioactivity is determined by scintillation counting. Non specific binding is defined as the binding not displaced by 100 fold excess of unlabelled LTB4. Specific binding is defined as the difference between total binding and non-specific binding. Non linear analysis of the binding data is performed using LIGAND (Munson and Rodbard, 1980). Ki (Inhibition Constant) values were determined using the Cheng-Prusoff relationship (Cheng and Prusoff, 1973).
(§1) Human neutrophils are prepared from citrated or heparinized blood. The blood was diluted 1:1 with Hank's balanced salt solution (HBSS) minus calcium and magnesium and underlayed with 10 ml lymphocyte separation medium (Organon Teknika), followed by centrifugation at 500× g for 30 min., at room temperature. Supernatants are removed down to the red blood cell pellet. HBSS minus calcium and magnesium are added to give 25 ml. To this are added 25 ml 6% dextran in 0.85% NaCl. Samples are mixed and allowed to stand 20 min at room temperature. Supernatants are removed and centrifuged at 500× g for 5 min at 4° C. Pellets are resuspended with 20 ml 0.2% saline for 20 sec followed by the addition of 20 ml 1.6% saline. Samples are centrifuged at 500× g for 5 min at 4° C. The lysis is repeated and the cells (90-95% neutrophils) are resuspended at 2× 10^6 cell/ml in GEY's salt solution.

Assay [2] relates to LTB4 -induced skin inflammation. The assay can be described thus: LTB4 Induced Skin Inflammation (hairless guinea pig). Particulars: for ID50, LTB4-induced skin inflammation, coinjection with LTB4: co-injection, 120 ng LTB4 intradermal; for ED50: Cavia porcellus. Format: in vivo. How it is done:
Skin inflammation is induced in the hairless guinea pig by the intradermal injection of 50 μl Gey's salt solution/10% DMSO containing 120 ng LTB4. Injections are performed along the dorsal skin of the animals. Test compounds are administered at various times by co-injection, intravenous or oral administration. The test animals are euthanized four to six hours after the LTB4 injection and uniform skin punches are prepared from the injection sites. Punches are homogenized in 0.5% hexadecyltrimethyl ammonium bromide for one minute and centrifuged for 20 minutes at 14,000× g. Leukocyte accumulation is measured by assaying for myeloperoxidase activity in a kinetic assay using dimethoxybenzidine as the substrate. […] Skin injected with 120 ng LTB4 can show myeloperoxidase levels of 0.30-0.40 U/punch. LTB4 induced leukocyte accumulation is confirmed histologically in hematoxylin/eosin stained sections.

Assay [3] concerns LTB4 -induced bronchoconstriction. Nature of the assay: Guinea Pig Bronchoconstriction In Vivo (LTB4-induced). The arrangement: species or system guinea pig (Hartley strain). Particulars: Cavia porcellus, po, read-out: ID50 (mg/kg), p.o., LTB4-induced bronchoconstriction.
Assay [4] shares this test system. Described as above. The arrangement: species or system guinea pig (Hartley strain). Particulars: Cavia porcellus, iv, i.v. five minutes prior to LTB4 (1 μg/kg i.v.), read-out: ID50 (mg/kg), i.v., LTB4-induced bronchoconstriction. How it is done:
Male guinea pigs (Hartley strain) weighing 300 to 500 g are anesthetized with urethane (2 g/kg) intraperitoneally and a polyethylene cannula is inserted into the jugular vein for drug administration. Tracheal pressure is recorded from a cannula inserted into the trachea and connected to a Gould P23ID pressure transducer. After surgical preparation of the animals, a period of time is allowed for pulmonary functions to stabilize. The test compound is administered intravenously five minutes prior to leukotriene B4 administration according to the following protocol: Animals are paralyzed with succinylcholine (1.2 mg/kg i.v.) and mechanically respirated (Harvard rodent respirator) at 40 breaths/minute and 2.5 cc tidal volume. Propranolol (0.1 mg/kg) is then administered intravenously one minute prior to leukotriene B4 administration. Animals are then challenged with an intermediate constrictory dose of leukotriene B4 (1 μg/kg) delivered intravenously.
The change (cm H2 O) between pre and peak ventilatory pressure readings is averaged for five control and five drug treated animals. The percent inhibition is calculated from the formula:
((Control-Drug Treated)/Control)×100
When representative compounds of formula I of the invention were utilized as the test compounds the following results were obtained: […]

In assay [5] the test system is LTB4 mediated calcium fluxes in human neutrophils. Nature of the assay: Calcium Flux Assay (inhibition of LTB4 mediated calcium fluxes in human neutrophils). The class given is cell-based. Particulars: Neutrophil; Fura2 labelled human neutrophils, 2.4 nM LTB4. The procedure:
as §1
LTB4 induced changes in intracellular calcium concentration are measured using Fura2 labelled human neutrophils. Cells at a concentration of 2-5×10^6 /ml are labelled with 5 μM Fura2 for 30 minutes in Hank's balanced salt solution without calcium and magnesium. The cells are washed and resuspended at a final concentration of 1-2×10^7 cells/ml in Gey's solution. Calcium fluxes are initiated by the addition of 2.4 nM LTB4. Test compounds at appropriate concentrations are added to the cells just prior to the addition of LTB4. […] Fluorescence measurements are made in a Perkin Elmer model LS-5B spectrofluorimeter at a temperature setting of 37° C. Calcium concentrations are determined using the ratio method (ratio of cell fluorescence to media fluorescence).
When representative compounds of formula I of the invention were tested, the results set forth in Table H and expressed as inhibition of LTB4 mediated calcium fluxes in human neutrophils, were obtained.
A general note: Calcium flux is commonly read through the fluorescence of an indicator in the cells.

Assay [6] deals with myeloperoxidase activity in mucosal scrapings. Nature of the assay: Acetic acid colitis (myeloperoxidase activity in mucosal scrapings). The class given is in vivo, Male Wistar rats. Particulars: rat, 10 mg/kg twice daily for 3 days, N=10. The procedure:
Male Wistar rats, weighing 175-225 g, are pretreated with test compound at 10 mg/kg, twice daily for 3 days (72 hours) prior to the evaluation of colitis. Colitis is induced after 2 days (48 hours) with an enema of 2 ml of 3.5% acetic acid; the acetic acid is neutralized after 10 seconds by 3 ml of phosphate-buffered saline, pH 7.4. After 3 days (72 hours), animals are sacrificed and myeloperoxidase activity in mucosal scrapings is determined as described in the skin inflammation model. Myeloperoxidase levels are presented as Units/gm mucosa.

[7] abbreviates: oral, read-out: ID50, LTB4-induced skin inflammation, oral route.

Molecule `CCCc1c(OCCCCCOc2ccc(C(=O)CCCC(=O)O)cc2CCC(=O)O)ccc2c1OCCC2=O` [Example 87, 3-(2-Carboxyethyl)-4-[5-[(3,4-dihydro-4-oxo-8-propyl-2H-1-benzopyran-7-yl)oxy]pentyloxy]-δ-oxobenzenepentanoic Acid] showed a pKi in assay [1] of 8.52. Besides, the “ID50, LTB4-induced skin inflammation, coinjection with LTB4” value (from here on “ID50, LTB4-induced skin inflammation”) in assay [2] amounted to 20 ng. Besides, the results for the ED50 in assay [3] and in assay [4] were above 10 mg/kg and 4.41 mg/kg, respectively.
Turning to `CCCc1c(OCCCCCOc2ccccc2CCC(=O)O)ccc2c1OCCC2=O` [Example 4, 2-[5-[(3,4-Dihydro-4-oxo-8-propyl-2H-1-benzopyran-7-yl)oxy]pentyloxy]benzenepropanoic Acid], the pIC50 in assay [5] was 7.59. The ED50 was above 10 mg/kg in assay [3] and 0.66 mg/kg in assay [4].
Consider `CCCc1c(OCCCCCOc2ccc(Cl)cc2CCC(=O)O)ccc2c1OCCC2=O` [Example 17, 5-Chloro-2-[5-[(3,4-dihydro-4-oxo-8-propyl-2H-1-benzopyran-7-yl)oxy]pentyloxy]benzenepropanoic Acid], for which the pKi in assay [1] was 7.44. Also, the pIC50 in assay [5] is 7.15. Besides, in assay [4], the ED50 amounted to 2.02 mg/kg.
`CCCc1c(OCCCCCOc2ccc(C(=O)c3cccc(C(=O)O)c3)cc2CCC(=O)O)ccc2c1OCCC2=O` [Example 20, 5-[(3-Carboxyphenyl)carbonyl]-2-[5-[(3,4-dihydro-4-oxo-8-propyl-2H-1-benzopyran-7-yl)oxy]pentyloxy]benzenepropanoic Acid] had a pKi in assay [1] of 8.70. For the same molecule, in assay [5], the pIC50 was 9.00. Also, the ED50 in assay [2] (intravenous at the time of the intradermal LTB4 injection, read-out: ID50, LTB4-induced skin inflammation, intravenous administration) stood at 6 mg/kg; in assay [2] (setting [7]), 30 mg/kg; in assay [4], 1.46 mg/kg. Further, the “ID50, LTB4-induced skin inflammation” value in assay [2] is listed as 100 ng.
For the molecule `CCCc1c(OCCCCCCc2ccc(OCCCC(=O)O)cc2CCC(=O)O)ccc2c1OCCC2=O` [Example 54, 5-(3-Carboxypropoxy)-2-[6-[(3,4-dihydro-4-oxo-8-propyl-2H-1-benzopyran-7-yl)oxy]hexyl]benzenepropanoic Acid], the pIC50 in assay [5] was 8.70. The ED50 in assay [2] (setting [7]) was 5 mg/kg; in assay [3], 8.7 mg/kg; in assay [4] it was 0.01 mg/kg. Moreover, the “ID50, LTB4-induced skin inflammation” value in assay [2] was 10 ng. The “% inhibition (myeloperoxidase, acetic acid colitis)” value in assay [6] was determined as 68%.
Take `CCCc1c(OCCCCCCc2cccc(OCCCCCO)c2CCC(=O)O)ccc2c1OCCC2=O` [Example 180, 2-[6-[(3,4-Dihydro-4-oxo-8-propyl-2H-1-benzopyran-7-yl)oxy]hexyl]-6-[(5-hydroxypentyl)oxy]benzenepropanoic Acid]: in assay [1], the negative logarithm of the Ki (pKi) is 9.00. Moreover, the pIC50 in assay [5] is 9.00. Further, the ED50 amounted to 4.8 mg/kg in assay [3] and 0.14 mg/kg in assay [4].
Molecule `CCCc1c(OCCCCCCc2cccc(OCC(=O)O)c2CCC(=O)O)ccc2c1OCCC2=O` [Example 152, 2-(Carboxymethoxy)-6-[6-[(3,4-dihydro-4-oxo-8-propyl-2H-1-benzopyran-7-yl)oxy]hexyl]benzenepropanoic Acid] showed a pKi in assay [1] of 9.00. Also, the negative-log IC50 (pIC50) in assay [5] was 8.52. Besides, the ED50 in assay [4] is 2 mg/kg.
In turn, `CCCc1c(OCCCCCOc2cccc(OCCCCC(=O)O)c2CCC(=O)O)ccc2c1OCCC2=O` [Example 62, 6-(4-Carboxybutoxy)-2-[5-[(3,4-dihydro-4-oxo-8-propyl-2H-1-benzopyran-7-yl)oxy]pentyloxy]benzenepropanoic Acid] gave a pKi in assay [1] of 9.10. In addition, in assay [2], the “ID50, LTB4-induced skin inflammation” value is recorded as 35 ng. The ED50 in assay [4] came to 2.06 mg/kg.
Turning to `CCCc1c(OCCCCCCc2cccc(OCCCCC(=O)O)c2CCC(=O)O)ccc2c1OCCC2=O` [Example 126, 2-(4-Carboxybutoxy)-6-[6-[(3,4-dihydro-4-oxo-8-propyl-2H-1-benzopyran-7-yl)oxy]hexyl]benzenepropanoic Acid], the pIC50 in assay [5] was 8.70. Besides, the ED50 is 0.54 mg/kg in assay [3] and 0.12 mg/kg in assay [4].
`CCCc1c(OCCCCCCc2cccc(OCCCCCC(=O)O)c2CCC(=O)O)ccc2c1OCCC2=O` [Example 157, 2-[(5-Carboxypentyl)oxy]-6-[6-[(3,4-dihydro-4-oxo-8-propyl-2H-1-benzopyran-7-yl)oxy]hexyl]benzenepropanoic Acid]: the pIC50 in assay [5] is 9.00. Moreover, the values for the ED50 in assay [3] and in assay [4] were 0.27 mg/kg and 0.07 mg/kg, respectively.
In the case of `CCCc1c(OCCCCCCc2ccc(C(=O)c3cccc(C(=O)O)c3)cc2CCC(=O)O)ccc2c1OCCC2=O` [Example 99, 5-[(3-Carboxyphenyl)carbonyl]-2-[6-[(3,4-dihydro-4-oxo-8-propyl-2H-1-benzopyran-7-yl)oxy]hexyl]benzenepropanoic Acid], in assay [1], the pKi was 9.00. Moreover, in assay [2], the “ID50, LTB4-induced skin inflammation” value stood at 20 ng.
Regarding `CCCc1c(OCCCCCCc2cccc(CCCCCC(=O)O)c2CCC(=O)O)ccc2c1OCCC2=O` [Example 169, 2-(2-Carboxyethyl)-3-[6-[(3,4-dihydro-4-oxo-8-propyl-2H-1-benzopyran-7-yl)oxy]hexyl]benzenehexanoic Acid], the pKi in assay [1] is 9.00. In assay [5], the pIC50 was 9.00. Further, the ED50 worked out at 4.4 mg/kg in assay [3] and 0.13 mg/kg in assay [4].
